From patent publication US10271539B2, “Assay-ready frozen cell and method for minimizing variability in the performance thereof” (LE CENTRE NATIONALE DE LA RECHERCHE SCIENTIFIQUE (CNRS), priority 2013, dated 2019) come the findings set out here.

Entries after “also recorded” stand apart in the source; their conditions may differ. Where a SMILES comes first, the peptide text is derived from it. [ ]: non-standard residue; d: D form. The star is where a group is joined. Sta = CC(C)C[C@H](N)[C@@H](O)CC(=O)O; Isovaleryl = CC(C)CC(=O)*; Cbz = O=C(OCc1ccccc1)*

The subject of data set [1] is KJL-2 cells. Nature of the data set: TNFα-induced firefly luciferase (FL) / Renilla luciferase (RL) reporter gene assay (DUAL-GLO) in vinblastin-treated, frozen and thawed KJL-2 cells. The data set is classed as cell-based, human. The following applies: for FL/RL ratio: scavengers/chelators of reactive oxygen species, cells treated 10 minutes. The protocol:
The X-axis is TNFα, ng/ml.
KJL-2 cells were used in all experiments (carried out to date). […] In order to reduce the formation of ice crystals and subsequent cell lysis, all experimental groups were frozen using the alcohol-free Biocison controlled freezing system that cools cells at approximately 1.0° C./minute.
For orientation: In a reporter assay the amount or activity of a reporter protein is the signal.

For data set [2], the system named is KJL-2 cells. Nature of the data set: Staurosporine-induced apoptosis: FL and RL activity in KJL-2 cells. Type of data set: cell-based, human. The following applies: 10 micromolar staurosporine, over 24 hours. The protocol:
Briefly, untreated cells or cells treated with vinblastin as described in WO 2004/039990; US 2004/0235157 and U.S. Pat. No. 7,470,536 were treated for 10 minutes with substances that inhibit the formation of reactive oxygen species and/or scavengers of reactive oxygen species either alone or concomitantly with vinblastin treatment. The cells were then frozen using the cryopreservative medium described in WO 2004/039990; US 2004/0235157 and U.S. Pat. No. 7,470,536 with or without substances that inhibit the formation of reactive oxygen species and/or scavengers of reactive oxygen species. KJL-2 cells were used in all experiments (carried out to date). All groups were treated with vinblastin using the same procedure as described in WO 2004/039990; US 2004/0235157 and U.S. Pat. No. 7,470,536. In order to reduce the formation of ice crystals and subsequent cell lysis, all experimental groups were frozen using the alcohol-free Biocison controlled freezing system that cools cells at approximately 1.0° C./minute. All assays were performed using DUAL-GLO (Promega, Catalogue No 2920) that allows Firefly luciferase (FL) and Renilla luciferase (RL) activity to be determined sequentially in the same well of a microtiter plate.

Where [3] appears, read: substances that reduce H2O2 (COX inhibitors).
Where [4] appears, read: pre-treatment of cells with proteasome inhibitor.
Where [5] appears, read: NAC both during treatment with vinblastin and in the cryopreservative medium.
The mark [6] stands for this setting: pre-treatment of cells with protease inhibitor and addition to the freezing medium.

Regarding `CC(=O)Oc1ccccc1C(=O)O` [Acetylsalicylic acid, acetylsalicylic acid], the FL activity entry with KJL-2 cells [1] (setting [3]) is given as “increased FL activity marginally”. Turning to `N[C@@H](CCC(=O)N[C@@H](CS)C(=O)NCC(=O)O)C(=O)O` [GSH, glutathione SH], the “vial-to-vial variation in normalized RLU and normalized fold induction” value was “appeared to be effective in reducing vial-to-vial variation” in the data set with KJL-2 cells [1] (1 mM GSH, FIGS. 5A and 5B); “higher degree of variability in FL readings” with KJL-2 cells [1] (1 mM GSH, FIGS. 5A and 5B, listed as glutathione SH). Take `CC(C)C[C@@H](C=O)NC(=O)[C@H](CC(C)C)NC(=O)[C@H](CC(C)C)NC(=O)OCc1ccccc1` [MG-132] (Cbz-Leu-Leu-Leu-aldehyde): the FL activity entry with KJL-2 cells [1] (setting [4]) is “did not increase FL activity significantly; also recorded: reduced FL activity”. With `OC[C@@H](O)[C@@H](O)[C@H](O)[C@H](O)CO` [Mannitol], in the data set on KJL-2 cells [1], the FL/RL ratio result is “without effect”. `CC(=O)N[C@@H](CSSC[C@H](N)C(=O)O)C(=O)O` [N-acetylcystine]: in the data set on KJL-2 cells [1] (5 mM NAC, FIGS. 6A and 6B), the “vial-to-vial variation in normalized RLU and normalized fold induction” value is “superior to GSH treatment in reducing vial-to-vial variation”. For the same compound, in the data set on KJL-2 cells [1] (setting [5]), the “lot-to-lot variation in the performance of assay-ready frozen cells” value is reported as “markedly reducing” and the “vial-to-vial variation in the performance of assay-ready frozen cells” value is on record as “markedly reducing”. `O=S(=O)(F)Cc1ccccc1` [PMSF]: the FL activity result in the data set on KJL-2 cells [1] (setting [6]) is reported as “did not significantly increase FL activity”.

Turning to `CC(C)CC(=O)N[C@H](C(=O)N[C@H](C(=O)N[C@@H](CC(C)C)[C@@H](O)CC(=O)N[C@@H](C)C(=O)N[C@@H](CC(C)C)[C@@H](O)CC(=O)O)C(C)C)C(C)C` [Pepstatin A] (Isovaleryl-VV[Sta]A[Sta]-OH), in the data set with KJL-2 cells [1] (setting [6]), the FL activity result is given as “did not significantly increase FL activity”. As to `CC1(C)CC(O)CC(C)(C)N1[O]` [TEMPOL], the FL/RL ratio entry in the data set with KJL-2 cells [1] is listed as “without effect”. The same measure, in the same setting: as for `O=S(=O)(O)c1cc(O)c(O)c(S(=O)(=O)O)c1` [Tiron], the entry is “without effect”. Take `CS(=O)(=O)c1ccc(C2=C(c3ccccc3)C(=O)OC2)cc1` [VIOXX, rofecoxib]: the FL activity result in the data set with KJL-2 cells [1] (setting [3]) is recorded as “increased FL activity marginally”.

Consider `Oc1ncnc2[nH]ncc12` [allopurinol], for which, in the data set on KJL-2 cells [1] (100 μM allopurinol in cryopreservative, frozen one day or 5 days, vs control, FIGS. 1A and 1B), the “FL values (RLU)” value is on record as “significantly increases FL values”. For the same compound, in the data set on KJL-2 cells [1] (100 μM allopurinol, relative to cells treated with vinblastin alone, FIGS. 3A-4B), the “intra-vial (vial to vial) variation in normalized RLU and normalized fold induction” value is on record as “reduced intra-vial variation”. In the data set with KJL-2 cells [1] (100 μM allopurinol, TNFα of 10 ng/ml and higher, FIGS. 4A and 4B), the “form of the TNFα dose response curve” value is recorded as “some alteration of the form of the TNFα dose response curve”. Consider `Cl.N` [ammonium chloride], for which the FL activity result in the data set on KJL-2 cells [1] (setting [6]) is listed as “did not significantly increase FL activity”. For `CC[C@H](C)[C@H](NC(=O)[C@H]([C@@H](C)CC)N(C)C(C)=O)C(=O)N[C@H](C(=O)N[C@@H](CC(C)C)C(=O)[C@@]1(C)CO1)[C@@H](C)O` [epoxomicin], the FL activity result in the data set on KJL-2 cells [1] (setting [4]) is given as “did not increase FL activity significantly”. The same measure, in the same setting: as for `CC(=O)N[C@@H](CSC(=O)[C@]1([C@@H](O)C(C)C)NC(=O)[C@H](C)[C@@H]1O)C(=O)O` [lactacystin], the entry is “did not increase FL activity significantly”. With `CN[C@@H]1C[C@H]2O[C@@](C)([C@@H]1OC)n1c3ccccc3c3c4c(c5c6ccccc6n2c5c31)C(=O)NC4` [staurosporine], in the data set with KJL-2 cells [2], the FL activity entry is “inhibits FL activity progressively” and the RL activity result is reported as “remains fairly constant”. Turning to `NCCNCCNCCNCCN` [tetra ethylenepentamine], the FL/RL ratio result with KJL-2 cells [1] is on record as “without effect”. With MNTMPyP, the FL/RL ratio result in the data set on KJL-2 cells [1] is reported as “without effect”.
